Tested on: wacher normotoner Hunde
Assay: Diastolic blood pressure in conscious normotensive dogs
Assay type: in vivo
Settings: Trandolapril alone, 3 mg/kg/Tag

CCOC(=O)[C@H](CCc1ccccc1)N[C@@H](C)C(=O)N1[C@H](C(=O)O)C[C@H]2CCCC[C@@H]21 [Trandolapril, N-(1s-Carbethoxy-3-phenylpropyl)-S-alanyl-2S,3aR,7aS-octa-hydroindol-2-carbonsäure]
Senkung des diastolischen Blutdruckes: weder Verapamil-SR allein (10 mg/kg/Tag) noch Trandolapril allein (3 mg/kg/Tag) den diastolischen Blutdruck wacher normotoner Hunde zu senken vermögen

Source: patent EP0508511B1 (KNOLL AG, priority 1991, dated 1992)
